In article PMC7507959, “A Structure-Based Mechanism for DNA Entry into the Cohesin Ring” (Molecular Cell, 2020):

B1: Psc3 (natural protein, fission yeast (S. pombe), UniProt O13816 1-962, looked up)
chain: MSESVTTGSDDDGGDRESSPVMLSQSFDPMSSSSNSSSEENSDDDYEKTISSKKRHPRPNSKGVNVKRSRRNAIVEEDPQEEIFNNLFAFLLDQKVDTMDIAVSWFADYAKDNQSALANLINFILKCCGCNRAINVFDVQDQDSASATLSQIQLSVERTSTRDYPLNSKNLKFRNFRKRLTGLLSNFVSQLSIRNYLYNSTVFEDIMSWVVAMSSSTMRPIRHTATVFCLNIMTFLCEKSKELLNEHAIATKQLEKEEKRSRVNRNRINELNNSLGEIVKQQDTLTTYLNDYFDSVFVHRYRDVEPKIRVDCLQELGVWINTVPSIFFSGSYLRYLGWMLSDINTTVRLTVVKVLRKFFETDSFIGGLRHFSSRFKERILEMSCVDADIGVRVASIRLCNAMRTCGFLENSEILKVLKLILDINPRVQREAVLFLCKVVDESVNEKIDLWGEEDYILKAFSQTSLTTFSVHWIKFSQMCKLLEEVRLSYQSSFDYDTLLRIFQKNGNFITPITQALLNACEIDSIYQSWEDISNFVLFDNYTSTLKDPIDSILSFCKLNDFQESILLQLLSASIQTVCNNNFITPKTVHNKQAAETTNDQNKDKDLLYLNLLPYINSITERNSASPTLLHDSLRLLFSMDLTEMTDPQLSRHFELLINNLKKFFLTNNDLQIIQGCTILFLRLDSIPALKEDLKLLVTDICDQTVTEFLKNFGSFNIQDAVITKDEFVIFEACLTRIEGCTSLKDFSDYPEFDIIYERLVSLLSRVPNSYEDTLKFSAINTLQSLLFWFFLRKDNPADEEKKKDDETKVFNCLINIMNNDSSKILQLQAARTFLETVIMKEGVKASHYNDDNRVSEEHNFLKPQFLDALLKILEGWLYTYAKVGQFPFKRLTQASSPHTQISLDKNPLNRRLLEHVCCDLTSKLLIVVSLSNTITPEFSQQFCELRGHYGPKLSAIVDEFLN
notes: Psc3 (Scc3/STAG1/2), HEAT repeat subunit of fission yeast cohesin; Subunit of the wild-type tetramer; constructs from Murayama and Uhlmann, 2014; also called Psc3^Scc3/STAG1/2; Scc3; source: budding yeast (W303 background), galactose-induced, purified as part of the cohesin tetramer
B2: Ssl3 (natural protein, fission yeast (S. pombe), UniProt O94459 1-559, looked up)
chain: MTGLNETDARILVTSRHLFLWPLAETYFKNAEKVLQDCGVCDSFGRLLSTGLQCLYSVLMDTKMEPRVELLTRKRICEVLLSHTVEYADVEAILNRALIIAEQHNLTEYKFSLQLLLSRVFCRTSPKAAKVLLTRCVREAEEYAKVAEIYHSNNQSNPHRWVYEFLLATLEFQNVSQVANSIHNYANHHKHQHLQLLAMILNQSLPMDEISTDSDQISILCLVTQIAQCLRKGEILLAREILPKIHSKLESETFVWPSSYIDFFIDDTSKISIKWMSINQLYLLIYLISGFCYISDSTSGRASRFLQEGLRITGDFKHQERCVLEYLESQKWINNITKDMKYYLIATYLSRSRLSKAERILQSTEDDQTGFLGILKGMYLQKRGDLKKAEVHYRETAKNFSFRTDTFIISTLNLINILEDSAAASRCLESIEPLCNKHEKKIFKLWLLVLKVIREGPQVHQSNVLPRVIQQSSEYANTQLQYISLTELSERFGKLEHAEKMAISALELAKKSKDELWCLISGRILEDFYRSVQKYDKMRQQALENSAYSKLIEDIYSFV
notes: Ssl3 (Scc4/MAU2), small subunit of the fission yeast cohesin loader; Used as the Mis4-Ssl3 complex; construct (plasmid pSsl3) from Murayama and Uhlmann, 2014; also called Ssl3^Scc4/MAU2; Scc4; source: fission yeast, thiamine-repressible expression, purified as Mis4-Ssl3

Experiments:
[1] = biological target: T1, fission yeast cohesin (Psm1-Psm3-Rad21-Psc3) with Mis4-Ssl3 loader (Schizosaccharomyces pombe, UniProt O42649+O94383); test: ATP hydrolysis, [gamma-33P]-ATP thin layer chromatography; assay type: biochemical; conditions: 0.25 mM ATP, Mis4-Ssl3, pBluescript dsDNA, 32 °C
T1 construct: tetramer expressed in budding yeast (W303); Mis4-Ssl3 expressed in fission yeast; FRET rows carry SNAP on Psm1 and CLIP on Psm3 C termini; with Cohesin subunit rad21; Cohesin subunit psc3; Sister chromatid cohesion protein mis4; MAU2 chromatid cohesion factor homolog ssl3

[2] = biological target: T2, N17-cohesin with Mis4-Ssl3 loader (Schizosaccharomyces pombe, UniProt O42649+O94383); test: as above; assay type: biochemical; conditions: 0.25 mM ATP, Mis4-Ssl3, pBluescript dsDNA, 32 °C
T2 construct: gene psm1; as P1 but Rad21 lacks amino acids 1-17 (residues 18-646); expressed in budding yeast; with Cohesin subunit rad21; Cohesin subunit psc3; Sister chromatid cohesion protein mis4; MAU2 chromatid cohesion factor homolog ssl3
T2 sequence (O94383 whole entry, one chain of several, the tested form may be a part): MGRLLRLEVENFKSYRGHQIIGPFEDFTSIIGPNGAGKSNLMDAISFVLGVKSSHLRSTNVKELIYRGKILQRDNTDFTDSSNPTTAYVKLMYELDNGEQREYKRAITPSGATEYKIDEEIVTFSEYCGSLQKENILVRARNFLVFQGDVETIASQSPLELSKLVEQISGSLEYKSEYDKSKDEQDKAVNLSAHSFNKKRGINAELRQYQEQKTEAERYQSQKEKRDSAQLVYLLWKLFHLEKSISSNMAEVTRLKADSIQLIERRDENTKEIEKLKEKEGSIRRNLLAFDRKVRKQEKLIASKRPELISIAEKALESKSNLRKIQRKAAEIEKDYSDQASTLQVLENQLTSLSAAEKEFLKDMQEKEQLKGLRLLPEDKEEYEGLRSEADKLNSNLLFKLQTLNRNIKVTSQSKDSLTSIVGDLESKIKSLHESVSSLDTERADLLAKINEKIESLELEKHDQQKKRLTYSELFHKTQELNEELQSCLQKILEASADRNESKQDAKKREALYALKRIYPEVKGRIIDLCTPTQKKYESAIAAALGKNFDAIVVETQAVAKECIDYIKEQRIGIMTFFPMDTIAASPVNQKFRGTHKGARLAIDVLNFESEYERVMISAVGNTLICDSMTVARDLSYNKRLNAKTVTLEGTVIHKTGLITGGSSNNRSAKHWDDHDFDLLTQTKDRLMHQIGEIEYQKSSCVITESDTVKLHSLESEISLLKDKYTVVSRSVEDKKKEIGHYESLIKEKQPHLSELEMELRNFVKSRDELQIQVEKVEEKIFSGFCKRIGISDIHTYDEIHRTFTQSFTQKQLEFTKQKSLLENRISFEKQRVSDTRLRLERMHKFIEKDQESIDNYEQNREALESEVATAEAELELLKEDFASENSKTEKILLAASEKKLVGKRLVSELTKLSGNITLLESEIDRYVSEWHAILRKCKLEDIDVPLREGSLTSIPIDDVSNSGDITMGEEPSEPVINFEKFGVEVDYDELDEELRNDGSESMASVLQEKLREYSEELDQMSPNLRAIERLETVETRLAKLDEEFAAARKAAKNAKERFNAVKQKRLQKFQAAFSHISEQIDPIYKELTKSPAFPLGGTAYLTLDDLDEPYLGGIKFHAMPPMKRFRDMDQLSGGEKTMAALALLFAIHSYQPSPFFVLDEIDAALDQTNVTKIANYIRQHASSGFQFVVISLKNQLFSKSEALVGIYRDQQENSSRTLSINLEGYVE
T2 sequence (O42649 whole entry, one chain of several, the tested form may be a part): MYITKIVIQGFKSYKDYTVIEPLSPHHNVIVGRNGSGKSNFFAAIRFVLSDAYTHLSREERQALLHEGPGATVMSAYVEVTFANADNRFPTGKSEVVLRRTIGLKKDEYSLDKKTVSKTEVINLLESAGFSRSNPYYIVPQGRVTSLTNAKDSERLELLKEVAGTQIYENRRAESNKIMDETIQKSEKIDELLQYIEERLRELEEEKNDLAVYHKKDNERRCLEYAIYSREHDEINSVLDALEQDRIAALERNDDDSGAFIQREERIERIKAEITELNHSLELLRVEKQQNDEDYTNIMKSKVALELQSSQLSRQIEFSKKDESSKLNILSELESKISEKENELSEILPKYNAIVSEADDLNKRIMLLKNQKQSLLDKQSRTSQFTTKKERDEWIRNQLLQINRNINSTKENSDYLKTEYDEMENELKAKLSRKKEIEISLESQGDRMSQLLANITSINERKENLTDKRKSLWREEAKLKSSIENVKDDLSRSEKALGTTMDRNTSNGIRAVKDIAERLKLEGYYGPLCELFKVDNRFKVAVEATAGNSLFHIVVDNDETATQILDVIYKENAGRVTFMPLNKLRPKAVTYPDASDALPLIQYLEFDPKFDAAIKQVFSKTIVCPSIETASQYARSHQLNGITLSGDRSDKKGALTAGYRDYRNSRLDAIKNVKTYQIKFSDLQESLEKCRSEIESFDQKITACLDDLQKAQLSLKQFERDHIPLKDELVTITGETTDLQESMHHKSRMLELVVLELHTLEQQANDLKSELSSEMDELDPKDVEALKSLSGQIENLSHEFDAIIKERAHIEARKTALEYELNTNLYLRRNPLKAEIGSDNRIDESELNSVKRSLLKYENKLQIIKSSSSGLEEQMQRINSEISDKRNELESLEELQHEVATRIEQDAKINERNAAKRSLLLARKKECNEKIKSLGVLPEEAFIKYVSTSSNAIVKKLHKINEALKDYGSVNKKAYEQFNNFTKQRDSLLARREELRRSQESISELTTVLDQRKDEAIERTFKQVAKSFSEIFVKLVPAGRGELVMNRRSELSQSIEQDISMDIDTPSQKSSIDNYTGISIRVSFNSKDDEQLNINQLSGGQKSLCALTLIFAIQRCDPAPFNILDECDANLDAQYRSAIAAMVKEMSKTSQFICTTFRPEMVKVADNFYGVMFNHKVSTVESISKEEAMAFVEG
T2 sequence (P30776 18-628 partner, one chain of several): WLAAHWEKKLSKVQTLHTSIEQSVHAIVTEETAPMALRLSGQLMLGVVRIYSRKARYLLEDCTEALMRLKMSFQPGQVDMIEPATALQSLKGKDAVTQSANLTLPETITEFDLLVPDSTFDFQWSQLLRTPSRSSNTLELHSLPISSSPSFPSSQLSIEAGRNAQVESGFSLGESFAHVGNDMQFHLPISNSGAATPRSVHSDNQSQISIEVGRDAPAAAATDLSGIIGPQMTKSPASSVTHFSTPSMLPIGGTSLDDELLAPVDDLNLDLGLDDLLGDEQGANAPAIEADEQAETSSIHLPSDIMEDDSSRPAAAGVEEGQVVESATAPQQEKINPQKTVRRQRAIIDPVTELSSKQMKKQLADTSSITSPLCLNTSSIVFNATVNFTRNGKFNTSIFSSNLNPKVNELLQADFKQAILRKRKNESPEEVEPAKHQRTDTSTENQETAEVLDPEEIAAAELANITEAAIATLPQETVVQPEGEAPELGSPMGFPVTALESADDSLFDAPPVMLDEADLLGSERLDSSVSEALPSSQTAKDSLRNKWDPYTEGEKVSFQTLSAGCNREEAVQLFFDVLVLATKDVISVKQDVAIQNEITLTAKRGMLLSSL
T2 sequence (Q09725 whole entry partner, one chain of several, the tested form may be a part): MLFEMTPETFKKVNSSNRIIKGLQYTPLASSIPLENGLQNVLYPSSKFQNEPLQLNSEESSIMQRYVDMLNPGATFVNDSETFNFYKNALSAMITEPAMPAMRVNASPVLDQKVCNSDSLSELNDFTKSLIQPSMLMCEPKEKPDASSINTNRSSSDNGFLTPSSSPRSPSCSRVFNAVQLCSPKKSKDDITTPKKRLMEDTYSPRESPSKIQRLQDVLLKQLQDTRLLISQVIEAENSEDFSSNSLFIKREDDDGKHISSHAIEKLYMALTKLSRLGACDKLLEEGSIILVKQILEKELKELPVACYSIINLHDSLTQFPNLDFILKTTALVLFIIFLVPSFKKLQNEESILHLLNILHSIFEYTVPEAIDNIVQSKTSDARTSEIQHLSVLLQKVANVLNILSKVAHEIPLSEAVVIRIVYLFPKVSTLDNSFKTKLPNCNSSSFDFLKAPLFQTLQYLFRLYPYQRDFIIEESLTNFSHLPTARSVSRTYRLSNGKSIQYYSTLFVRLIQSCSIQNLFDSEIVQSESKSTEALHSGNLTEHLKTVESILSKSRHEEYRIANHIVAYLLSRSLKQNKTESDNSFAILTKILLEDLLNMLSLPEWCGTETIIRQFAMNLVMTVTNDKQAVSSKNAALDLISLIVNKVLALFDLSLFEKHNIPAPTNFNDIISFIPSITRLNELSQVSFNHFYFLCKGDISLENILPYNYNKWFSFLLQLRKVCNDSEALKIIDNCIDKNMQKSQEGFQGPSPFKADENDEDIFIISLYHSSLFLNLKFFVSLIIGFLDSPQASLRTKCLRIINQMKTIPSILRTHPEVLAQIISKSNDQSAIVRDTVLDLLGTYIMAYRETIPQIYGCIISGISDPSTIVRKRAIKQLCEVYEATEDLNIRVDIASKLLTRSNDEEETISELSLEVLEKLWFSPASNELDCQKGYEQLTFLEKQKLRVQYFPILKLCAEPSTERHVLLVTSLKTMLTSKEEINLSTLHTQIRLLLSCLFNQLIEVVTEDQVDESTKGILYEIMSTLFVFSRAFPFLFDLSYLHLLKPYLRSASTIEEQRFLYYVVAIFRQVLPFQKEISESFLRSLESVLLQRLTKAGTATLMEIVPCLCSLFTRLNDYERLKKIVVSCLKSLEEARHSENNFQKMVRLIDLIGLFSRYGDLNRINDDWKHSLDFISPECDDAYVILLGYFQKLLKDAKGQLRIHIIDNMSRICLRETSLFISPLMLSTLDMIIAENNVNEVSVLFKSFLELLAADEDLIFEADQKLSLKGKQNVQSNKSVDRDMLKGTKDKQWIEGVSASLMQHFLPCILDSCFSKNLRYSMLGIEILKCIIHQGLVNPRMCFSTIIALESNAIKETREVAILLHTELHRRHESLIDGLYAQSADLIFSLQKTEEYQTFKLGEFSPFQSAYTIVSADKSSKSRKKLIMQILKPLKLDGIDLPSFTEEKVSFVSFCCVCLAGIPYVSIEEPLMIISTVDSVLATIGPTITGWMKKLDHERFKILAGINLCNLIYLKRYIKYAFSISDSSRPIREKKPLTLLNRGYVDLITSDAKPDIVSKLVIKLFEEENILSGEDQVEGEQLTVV

[3] = biological target: T3, fission yeast cohesin (Psm1-Psm3-Rad21-Psc3) with Mis4-Ssl3 loader (Schizosaccharomyces pombe, UniProt O42649+O94383, O42649:E1126Q/O94383:E1161Q); test: FRET between SNAP/CLIP-labelled ATPase heads; assay type: binding; conditions: hydrolysis-deficient EQ-cohesin; 0.5 mM ATP, Mis4-Ssl3, DNA, 1 mM MgCl2, pH 7.5, 32 °C
T3 construct: tetramer expressed in budding yeast (W303); Mis4-Ssl3 expressed in fission yeast; FRET rows carry SNAP on Psm1 and CLIP on Psm3 C termini; with Cohesin subunit rad21; Cohesin subunit psc3; Sister chromatid cohesion protein mis4; MAU2 chromatid cohesion factor homolog ssl3

[4] = biological target: T4, Mis4 (fission yeast (S. pombe), UniProt Q09725 1-1587); test: cross-linking; SDA (NHS-diazirine) UV crosslinking with mass spectrometry (CLMS), gripping state: 200 nM cohesin, 200 nM Mis4-Ssl3, 200 nM 125 bp dsDNA, 0.5 mM ADP and 0.5 mM BeSO4 + 10 mM NaF, 32°C 20 min; conditions: both partners purified
T4 construct: Mis4 (Scc2/NIPBL), fission yeast cohesin loader; Used as the Mis4-Ssl3 complex; construct from Murayama and Uhlmann, 2014; also called Mis4^Scc2/NIPBL; cohesin loader; source: fission yeast, thiamine-repressible expression, purified as Mis4-Ssl3
T4 sequence (Q09725 whole entry): as the sequence (Q09725 whole entry partner, one chain of several, the tested form may be a part) above

[5] = biological target: B1; test: as above; conditions: both partners purified

Molecule: Nc1ncnc2c1ncn2[C@@H]1O[C@H](COP(=O)(O)OP(=O)(O)OP(=O)(O)O)[C@@H](O)[C@H]1O [ATP]
ATP hydrolysis, [gamma-33P]-ATP thin layer chromatography [1]: loader-stimulated ATP hydrolysis were equal when using wild-type or N17-cohesin | ATP hydrolysis, [gamma-33P]-ATP thin layer chromatography [2]: loader-stimulated ATP hydrolysis were equal when using wild-type or N17-cohesin | FRET between SNAP/CLIP-labelled ATPase heads [3]: the presence of all three components—the loader, DNA, and ATP—resulted in a marked FRET increase

Molecule: B1
binding result [4]: binds

Molecule: B2
binding result [5]: binds
